Columns and labels:
[1] = biological target: T1, human OX2R (Homo sapiens, UniProt O43614); experiment: Agonist activity against OX2R: intracellular calcium (Fura-2AM, FDSS7000) in CHOOX2R cells; type: cell-based; settings: relative to orexin-A as full agonist (100%)
T1 construct: expressed in transfected cells; host or cells: CHO (Chinese hamster ovary) cells, line CHOOX2R, co-expressing NFAT-luciferase
T1 sequence (O43614 1-444): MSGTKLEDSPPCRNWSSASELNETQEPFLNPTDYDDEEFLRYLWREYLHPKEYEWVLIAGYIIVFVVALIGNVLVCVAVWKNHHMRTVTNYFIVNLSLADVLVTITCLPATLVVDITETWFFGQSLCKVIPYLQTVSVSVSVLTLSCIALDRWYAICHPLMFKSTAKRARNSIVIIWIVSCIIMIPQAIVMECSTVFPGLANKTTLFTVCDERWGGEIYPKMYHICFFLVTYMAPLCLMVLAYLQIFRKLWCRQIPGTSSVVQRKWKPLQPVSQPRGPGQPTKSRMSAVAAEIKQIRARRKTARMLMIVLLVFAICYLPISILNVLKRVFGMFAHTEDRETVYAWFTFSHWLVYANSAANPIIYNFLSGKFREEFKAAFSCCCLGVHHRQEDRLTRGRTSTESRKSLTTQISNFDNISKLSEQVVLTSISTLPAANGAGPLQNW
How it was run: (§1)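 Response is agonist activity at 0.1, 1.0 or 10 μM compound as a percentage of the orexin-A full-agonist maximum, taken from 340/380 nm Fura-2 ratio changes. Each cell line is CHO constitutively expressing human OX1R or OX2R with NFAT-luciferase, dye-loaded 60 min with 5 μM Fura-2AM; compound range 10^−7–10^−5 M, 1% DMSO.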

[2] = biological target: T2, human OX1R (Homo sapiens, UniProt O43613); experiment: Agonist activity against OX1R: intracellular calcium (Fura-2AM, FDSS7000) in CHOOX1R cells; type: cell-based; settings: relative to orexin-A as full agonist (100%)
T2 construct: expressed in transfected cells; host or cells: CHO (Chinese hamster ovary) cells, line CHOOX1R, co-expressing NFAT-luciferase
T2 sequence (O43613 1-425): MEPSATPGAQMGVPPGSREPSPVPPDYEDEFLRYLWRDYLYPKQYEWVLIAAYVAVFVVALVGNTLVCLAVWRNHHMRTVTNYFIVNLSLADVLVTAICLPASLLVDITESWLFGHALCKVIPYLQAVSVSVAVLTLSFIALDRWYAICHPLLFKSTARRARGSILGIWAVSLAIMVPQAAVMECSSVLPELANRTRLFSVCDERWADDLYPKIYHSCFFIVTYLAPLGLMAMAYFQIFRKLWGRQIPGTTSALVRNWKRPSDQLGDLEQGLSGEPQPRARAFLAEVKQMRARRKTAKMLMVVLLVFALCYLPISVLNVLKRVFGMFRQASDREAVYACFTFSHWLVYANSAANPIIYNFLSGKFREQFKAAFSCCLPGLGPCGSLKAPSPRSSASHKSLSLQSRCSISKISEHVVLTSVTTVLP
How it was run: as §1

Row | SMILES | Response (%) OX2R ([1]; test compound 0.1 μM) [%] | Response (%) OX2R ([1]; test compound 1.0 μM) [%] | Response (%) OX2R ([1]; test compound 10 μM) [%] | Response (%) OX1R ([2]; test compound 0.1 μM) [%] | Response (%) OX1R ([2]; test compound 1.0 μM) [%] | Response (%) OX1R ([2]; test compound 10 μM) [%] | Response (%) OX2R ([1]; 0.1 μM test compound) [%] | Response (%) OX2R ([1]; 1.0 μM test compound) [%] | Response (%) OX2R ([1]; 10 μM test compound) [%] | Response (%) OX1R ([2]; 0.1 μM test compound) [%] | Response (%) OX1R ([2]; 1.0 μM test compound) [%] | Response (%) OX1R ([2]; 10 μM test compound) [%] | Emax at 0.1 µM ([2]; test compound 0.1 μM, read-out: Response (%) OX1R) [%] | Emax at 1 µM ([2]; test compound 1.0 μM, read-out: Response (%) OX1R) [%] | Emax at 10 µM ([2]; test compound 10 μM, read-out: Response (%) OX1R) [%]
1 | COc1ccc(Nc2c(Nc3cccc(NS(=O)(=O)c4cc(-c5cccc(C(=O)N(C)C)c5)ccc4OC)c3)c(=O)c2=O)cc1 [Example 81] | <5 | <5 | 27 | <5 | <5 | 7 | – | – | – | – | – | – | – | – | –
2 | CCN(Cc1ccccc1)C(=O)c1ccc(OC)c(S(=O)(=O)Nc2cccc(NC(=O)Nc3cccc(N(C)C)c3)c2)c1 [Example 101] | 20 | 89 | 111 | <5 | <5 | <5 | – | – | – | – | – | – | – | – | –
3 | COc1ccc(-c2cccc(C(=O)N(C)C)c2)cc1S(=O)(=O)Nc1cccc(Nc2ccc(C(=O)N(C)C)cc2)c1 [Example 34] | – | – | – | – | – | – | <5 | 52 | 95 | <5 | <5 | <5 | – | – | –
4 | COc1ccc(-c2cccc(C(=O)N(C)C)c2)cc1S(=O)(=O)Nc1cccc(NS(=O)(=O)c2cccc(Br)c2)c1 [Example 86] | <5 | <5 | 11 | <5 | <5 | <5 | – | – | – | – | – | – | – | – | –
5 | COc1ccc(-c2cccc(C(=O)N(C)C)c2)cc1S(=O)(=O)Nc1cccc(NC(=O)c2cccc(N(C)C)c2)c1 [Example 7] | – | – | – | – | – | – | 8 | 10 | 24 | 6 | 8 | 27 | – | – | –
6 | COc1ccc(-c2cccc(C(=O)N(C)C)c2)cc1S(=O)(=O)Nc1cccc(NCc2ccccc2C)c1 [Example 24] | – | – | – | – | – | – | <5 | 72 | 93 | <5 | <5 | 6 | – | – | –
7 | COc1ccc(-c2cccc(C(=O)N(C)C)c2)cc1S(=O)(=O)Nc1cccc(NC(=O)Nc2cccc(NC(=NC(=O)OC(C)(C)C)NC(=O)OC(C)(C)C)c2)c1 [Example 64] | – | – | – | – | – | – | <5 | <5 | <5 | <5 | <5 | <5 | – | – | –
8 | COc1ccc(-c2cccc(C(=O)N(C)C)c2)cc1S(=O)(=O)Nc1cccc(NS(C)(=O)=O)c1 [Example 89] | 7 | 8 | 31 | <5 | <5 | <5 | – | – | – | – | – | – | – | – | –
9 | COc1ccc(-c2cccc(C(=O)N(C)C)c2)cc1S(=O)(=O)Nc1cccc(NC(=O)/C=C/c2ccoc2)c1 [Example 14] | – | – | – | – | – | – | <5 | 18 | 74 | <5 | <5 | <5 | – | – | –
10 | COc1ccccc1Nc1cccc(NS(=O)(=O)c2cc(-c3cccc(C(=O)N(C)C)c3)ccc2OC)c1 [Example 31] | – | – | – | – | – | – | <5 | 10 | 72 | <5 | <5 | <5 | – | – | –
11 | CCCOc1ccc(-c2cccc(C(=O)N(C)C)c2)cc1S(=O)(=O)Nc1cccc(NC(=O)Nc2cccc(N(C)C)c2)c1 [Example 120] | 29 | 84 | 103 | <5 | <5 | <5 | – | – | – | – | – | – | – | – | –
12 | COc1ccc(-c2cccc(C(=O)N(C)C)c2)cc1S(=O)(=O)Nc1cccc(NC(=O)c2cccc(Br)c2)c1 [Example 3] | – | – | – | – | – | – | <5 | 6 | 23 | 14 | 9 | 12 | – | – | –
13 | COc1ccc(Nc2cccc(NS(=O)(=O)c3cc(-c4cccc(C(=O)N(C)C)c4)ccc3OC)c2)cc1OC [Example 33] | – | – | – | – | – | – | 37 | 92 | 87 | <5 | <5 | 50 | – | – | –
14 | COc1ccc(C(=O)Nc2cccc(N(C)C)c2)cc1S(=O)(=O)Nc1cccc(NC(=O)Nc2cccc(N(C)C)c2)c1 [Example 106] | 9 | 7 | 46 | 8 | 7 | 8 | – | – | – | – | – | – | – | – | –
15 | COc1ccc(C(=O)NCc2cccnc2)cc1S(=O)(=O)Nc1cccc(NC(=O)Nc2cccc(N(C)C)c2)c1 [Example 103] | 4 | 27 | 84 | <5 | <5 | <5 | – | – | – | – | – | – | – | – | –
16 | COc1ccc(-c2cccc(C(=O)N(C)C)c2)cc1S(=O)(=O)Nc1cccc(NC(=O)OC(C)(C)C)c1 [Example 74] | – | – | – | – | – | – | 15 | 13 | 64 | 6 | 7 | 7 | – | – | –
17 | COc1ccc(C(=O)Nc2cccc(NS(=O)(=O)c3cc(-c4cccc(C(=O)N(C)C)c4)ccc3OC)c2)cc1 [Example 19] | – | – | – | – | – | – | <5 | 10 | 58 | <5 | <5 | <5 | – | – | –
18 | COc1ccc(-c2cccc(C(=O)N(C)C)c2)cc1S(=O)(=O)Nc1cccc(NS(=O)(=O)c2cccc(F)c2)c1 [Example 88] | 15 | 13 | 13 | 7 | 7 | 9 | – | – | – | – | – | – | – | – | –
19 | COc1ccc(-c2cccc(C(=O)N(C)C)c2)cc1S(=O)(=O)Nc1ccccc1NC(=O)Nc1cccc(N(C)C)c1 [Example 121] | 7 | 47 | 104 | <5 | <5 | 10 | – | – | – | – | – | – | – | – | –
20 | COc1ccc(-c2cccc(C(=O)N(C)C)c2)cc1S(=O)(=O)Nc1cccc(N2CCCN(c3ccc(N(C)C)cc3)C2=O)c1 [Example 135] | 94 | 66 | 64 | 8 | 14 | 83 | – | – | – | – | – | – | – | – | –
21 | COc1ccc(-c2cccc(C(=O)N(C)C)c2)cc1S(=O)(=O)Nc1cccc(N2CCN(C(=O)c3cccc(C)c3)C2)c1 [Example 93, 4′-methoxy-N,N-dimethyl-3′-(N-(3-(3-(3-methylbenzoyl)imidazolidin-1-yl)phenyl)sulfamoyl)-[1,1′-biphenyl]-3-carboxamide] | 16 | 77 | 85 | – | – | – | – | – | – | – | – | – | 10 | 9 | 20
22 | COc1ccc(-c2cccc(C(=O)N(C)C)c2)cc1S(=O)(=O)Nc1cccc(NC(=O)c2ccc(N(C)C)cc2)c1 [Example 8] | – | – | – | – | – | – | 8 | 13 | 61 | 9 | 8 | 27 | – | – | –

Reference: patent US10351522B2, “Sulfonamide derivative and pharmaceutically acceptable acid addition salt thereof” (UNIVERSITY OF TSUKUBA, priority 2015, dated 2019)
